The source of these data is ChEMBL document CHEMBL5252666, “Discovery of CVN636: A Highly Potent, Selective, and CNS Penetrant mGluR7 Allosteric Agonist” (ACS Med Chem Lett, 2023).

The target in data set [1] is T1, Metabotropic glutamate receptor 7 (Homo sapiens, UniProt Q14831). Nature of the data set: Competitive binding affinity to mGluR7 (unknown origin) assessed as rightward shift in forskolin-induced cAMP production level by measuring fold change preincubated for 15 mins in the presence of LY341495 followed by forskolin stimulation and measured after 5 hrs by luminescence based steady glo assay. Particulars: filed as agonist, time 315.0 min. Background: Changes in cAMP serve as a functional read-out for many G protein-coupled receptors.
T1 sequence (Q14831 whole entry): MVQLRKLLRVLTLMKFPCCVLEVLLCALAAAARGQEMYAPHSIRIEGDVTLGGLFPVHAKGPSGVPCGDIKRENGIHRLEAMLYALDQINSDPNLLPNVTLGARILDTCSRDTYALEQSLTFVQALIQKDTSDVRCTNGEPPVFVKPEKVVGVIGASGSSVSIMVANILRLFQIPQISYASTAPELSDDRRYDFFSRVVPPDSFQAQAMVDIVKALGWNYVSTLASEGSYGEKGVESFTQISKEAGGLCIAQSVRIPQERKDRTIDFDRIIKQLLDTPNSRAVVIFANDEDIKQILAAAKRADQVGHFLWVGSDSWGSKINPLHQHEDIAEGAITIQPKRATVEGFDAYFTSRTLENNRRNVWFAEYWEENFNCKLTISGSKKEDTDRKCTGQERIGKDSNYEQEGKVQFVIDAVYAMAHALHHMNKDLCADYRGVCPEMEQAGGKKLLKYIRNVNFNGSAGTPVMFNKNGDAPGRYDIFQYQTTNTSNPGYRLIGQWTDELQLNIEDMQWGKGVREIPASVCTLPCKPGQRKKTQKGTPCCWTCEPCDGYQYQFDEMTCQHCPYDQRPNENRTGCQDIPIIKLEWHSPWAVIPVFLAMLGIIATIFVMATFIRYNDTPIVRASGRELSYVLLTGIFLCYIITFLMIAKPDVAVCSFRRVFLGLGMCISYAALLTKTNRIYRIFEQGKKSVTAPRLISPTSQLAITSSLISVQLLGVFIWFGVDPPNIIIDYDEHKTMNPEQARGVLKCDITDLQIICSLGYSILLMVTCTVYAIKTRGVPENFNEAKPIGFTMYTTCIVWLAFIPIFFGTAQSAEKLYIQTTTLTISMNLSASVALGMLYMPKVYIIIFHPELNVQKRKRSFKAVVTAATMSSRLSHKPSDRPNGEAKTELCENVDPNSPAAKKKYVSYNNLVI

The target in data set [2] is T1, Metabotropic glutamate receptor 7. Briefly: Agonist activity at human mGluR7b expressed in CHO cells assessed as inhibition of forskolin-stimulated cAMP accumulation. It is filed as cell-based.
The target is the same in data set [3]. Nature of the data set: Positive allosteric modulation of mGluR7 (unknown origin) assessed as change in forskolin-induced cAMP production by measuring fold change in EC50 shift preincubated with compound for 15 mins in the presence of LY341495 followed by forskolin stimulation and measured after 5 hrs by luminescence based steady glo assay. Particulars: filed as positive allosteric modulator, time 315.0 min.

Data set [4] shares this target. Nature of the data set: Positive allosteric modulation of mGluR7 (unknown origin) assessed as change in forskolin-induced cAMP production by measuring reduction in maximum response preincubated with compound for 15 mins in the presence of LY341495 followed by forskolin stimulation and measured after 5 hrs by luminescence based steady glo assay. Also on record: scale not given: the % may be the effect or the level left. Particulars: filed as positive allosteric modulator, time 315.0 min.

For data set [5] the target is unchanged. Nature of the data set: Agonist activity at human mGluR7 expressed in CHO cells expressing CRE-Luc reporter gene assessed as reduction in forskolin-stimulated cAMP production preincubated for 15 mins followed by forskolin stimulation and measured after 5 hrs by luminescence based Steady glo assay. The format is cell-based. (In general: Reporter assays use an easily measured gene product as a stand-in for the process of interest.)

Data set [6] shares this target. Briefly: Agonist activity at human mGluR7 expressed in CHO cells expressing CRE-Luc reporter gene assessed as reduction in forskolin-stimulated cAMP production by measuring maximum efficacy preincubated for 15 mins followed by forskolin stimulation and measured after 5 hrs by luminescence based Steady glo assay relative to control. It is filed as cell-based. Particulars: filed as agonist, time 315.0 min.

Data set [7] addresses Sodium-dependent noradrenaline transporter (Homo sapiens) (UniProt P23975). Briefly: Binding affinity to human norepinephrine transporter at 10 uM.
For data set [8], the target named is Histamine H1 receptor (Homo sapiens) (UniProt P35367). Briefly: Binding affinity to human H1 receptor at 10 uM.
Histamine H1 receptor (Homo sapiens), sequence (P35367 whole entry): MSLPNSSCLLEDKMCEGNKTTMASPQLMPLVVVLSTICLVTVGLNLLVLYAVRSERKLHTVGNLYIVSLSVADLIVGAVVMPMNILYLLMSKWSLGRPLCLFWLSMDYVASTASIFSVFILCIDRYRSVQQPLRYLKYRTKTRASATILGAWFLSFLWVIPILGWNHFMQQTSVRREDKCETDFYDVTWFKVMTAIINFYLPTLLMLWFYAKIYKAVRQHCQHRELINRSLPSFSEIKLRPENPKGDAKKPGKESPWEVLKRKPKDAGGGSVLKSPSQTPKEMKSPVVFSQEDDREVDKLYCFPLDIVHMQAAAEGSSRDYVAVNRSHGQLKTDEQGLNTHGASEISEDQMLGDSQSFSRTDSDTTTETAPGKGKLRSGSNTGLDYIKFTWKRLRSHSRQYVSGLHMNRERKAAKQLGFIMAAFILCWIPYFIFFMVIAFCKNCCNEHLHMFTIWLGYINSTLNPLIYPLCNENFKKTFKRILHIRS
Data set [9] addresses T1, Metabotropic glutamate receptor 7. Briefly: Agonist activity at human mGluR7 expressed in CHO cells assessed as change in extracellular impedance incubated for 40 mins by CellKey impedance assay. The format is cell-based. Particulars: filed as agonist.
Data set [10] has the same target. Briefly: Desensitization at human mGluR7 expressed in CHO cells assessed as reduction in tool agonist response at 10 uM preincubated for 1 hrs followed by compound replacement with assay buffer and measured 1 hrs after tool agonist addition by CellKey impedance assay relative to control. The format is cell-based. Set-up: scale not given: the % may be the effect or the level left.

Data set [11] shares this target. Nature of the data set: Allosteric agonist activity at mGluR7 (unknown origin) assessed as reduction in forskolin-induced cAMP production by measuring fold change in EC50 preincubated for 15 mins in the presence of LY341495 followed by forskolin stimulation and measured after 5 hrs by luminescence based steady glo assay. Particulars: filed as agonist, time 315.0 min.

The target in data set [12] is Adrenergic receptor alpha-1 (Rattus norvegicus) (UniProt P15823+P23944+P43140). Nature of the data set: Binding affinity to rat alpha 1 adrenergic receptor at 10 uM. It is filed as protein assay.
Data set [13] concerns the target Metabotropic glutamate receptor 5 (Homo sapiens) (UniProt P41594). Nature of the data set: Agonist activity at mGluR5 (unknown origin) at 1 to 10 uM by Galphaqi5 calcium flux assay. As to conditions: dose 1-10 µM. A general note: Calcium assays in cells follow changes in intracellular calcium, usually with a dye or a luminescent sensor.
The target of data set [14] is Metabotropic glutamate receptor 7 (Mus musculus, UniProt Q68ED2). Nature of the data set: Agonist activity at mouse mGluR7 expressed in CHO cells expressing CRE-Luc reporter gene assessed as reduction in forskolin-stimulated cAMP production preincubated for 15 mins followed by forskolin stimulation and measured after 5 hrs by luminescence based Steady glo assay. It is filed as cell-based.
Metabotropic glutamate receptor 7 (Mus musculus, UniProt Q68ED2), sequence (Q68ED2 whole entry): as the sequence (Q14831 whole entry) above, with R5G, A27V, S488T, A520P, D578N counted along it

Data set [15] is described as follows: Stability in cryopreserved rat hepatocytes assessed as clearance measured for 120 mins by LC-MS/MS analysis. As to conditions: read-out: CLH. It is filed as ADME, cell-based, Hepatocyte.
The test system of data set [16] is Rattus norvegicus. Nature of the data set: In vivo agonist activity in alcohol preferring Marchigian-Sardinian rat assessed as reduction in alcohol self-administration by measuring number of response at 3 mg/kg, po administered for 1 hrs. It is filed as functional.
Data set [17] addresses Metabotropic glutamate receptor 8 (Homo sapiens) (UniProt O00222). Nature of the data set: Agonist activity at human mGluR8 expressed in CHO cells assessed as reduction in forskolin-induced cAMP production incubated for 1 hrs by HTRF analysis. The format is cell-based.
Data set [18] addresses Metabotropic glutamate receptor 6 (Homo sapiens) (UniProt O15303). Nature of the data set: Agonist activity at mGluR6 (unknown origin) at 1 to 10 uM by cAMP assay. Particulars: dose 1-10 µM.
The target in data set [19] is T1, Metabotropic glutamate receptor 7. Briefly: Desensitization at human mGluR7 expressed in CHO cells assessed as reduction in tool agonist response at EC80 concentration preincubated for 1 hrs followed by compound replacement with assay buffer and measured 1 hrs after tool agonist addition by CellKey impedance assay relative to control. The format is cell-based.

Data set [20] can be described thus: Tmax in Sprague-Dawley rat at 3 mg/kg, po measured after 24 hrs by LC-MS/MS analysis. It is filed as ADME, organism-based. As to conditions: in vivo.
Data set [21] in a line: Unbound fraction in rat brain incubated for 6 hrs by LC-MS/MS based rapid equilibrium dialysis. It is filed as ADME, tissue-based.
A short description of data set [22]: Apparent permeability from apical to basolateral side in MDCK-MDR1 cells. It is filed as ADME, cell-based, Canis lupus familiaris. As to conditions: dog.
The nature of data set [23]: Ratio of unbound brain to plasma concentration in Sprague-Dawley rat at 3 mg/kg, po measured after 4 hrs by LC-MS/MS analysis. It is filed as ADME, organism-based.
A short description of data set [24]: Unbound fraction in rat plasma incubated for 6 hrs by LC-MS/MS based rapid equilibrium dialysis. It is filed as ADME, cell-free.
Data set [25] addresses Metabotropic glutamate receptor 2 (Homo sapiens) (UniProt Q14416). Nature of the data set: Agonist activity at mGluR2 (unknown origin) at 1 to 10 uM by cAMP assay. Particulars: dose 1-10 µM.
Data set [26] has as its target Metabotropic glutamate receptor 3 (Homo sapiens) (UniProt Q14832). Nature of the data set: Agonist activity at mGluR3 (unknown origin) at 1 to 10 uM by Galphaqi5 calcium flux assay. Particulars: dose 1-10 µM.
Data set [27] deals with Rattus norvegicus. Briefly: In vivo agonist activity in po dosed alcohol preferring Marchigian-Sardinian rat assessed as reduction in alcohol self-administration measured after 1 hrs. It is filed as functional, organism-based. As to conditions: dose 0.3-3 mg/kg.
The nature of data set [28]: Ratio of drug concentration in Sprague-Dawley rat brain to plasma at 3 mg/kg, po measured after 4 hrs by LC-MS/MS analysis. The format is ADME, organism-based.
In data set [29] the target is Metabotropic glutamate receptor 1 (Homo sapiens) (UniProt Q13255). Nature of the data set: Agonist activity at mGluR1 (unknown origin) at 1 to 10 uM by Galphaqi5 calcium flux assay. Particulars: dose 1-10 µM.
Data set [30] addresses Metabotropic glutamate receptor 4 (Homo sapiens) (UniProt Q14833). Briefly: Agonist activity at human mGluR4 expressed in CHO cells assessed as reduction in forskolin-induced cAMP production incubated for 1 hrs by HTRF analysis. The format is cell-based.
Data set [31] can be described thus: AUC(0 to infinity) in Sprague-Dawley rat at 3 mg/kg, po measured after 24 hrs by LC-MS/MS analysis. It is filed as ADME, organism-based. As to conditions: in vivo. Set-up: time 24 hrs, dose 3 mg/kg, route po.
A short description of data set [32]: Cmax in Sprague-Dawley rat at 3 mg/kg, po measured after 24 hrs by LC-MS/MS analysis. The format is ADME, organism-based. Set-up: dose 3 mg/kg, time 24 hrs, route po. Particulars: in vivo.
Data set [33] can be described thus: Half-life in Sprague-Dawley rat at 3 mg/kg, po measured after 24 hrs by LC-MS/MS analysis. The format is ADME, organism-based. As to conditions: in vivo.
Data set [34] is described as follows: Oral bioavailability in Sprague-Dawley rat at 3 mg/kg measured after 24 hrs by LC-MS/MS analysis. The format is ADME, organism-based. Particulars: in vivo.
Data set [35] can be described thus: Efflux ratio of apparent permeability in MDCK-MDR1 cells. It is filed as ADME, cell-based, Canis lupus familiaris. Particulars: dog.
In data set [36] the test system is Rattus norvegicus. Briefly: In vivo agonist activity in alcohol preferring Marchigian-Sardinian rat assessed as reduction in alcohol self-administration at 3 mg/kg, po administered for 1 hrs relative to control. It is filed as functional. Also on record: scale not given: the % may be the effect or the level left.
Data set [37] can be described thus: Volume of distribution at steady state in Sprague-Dawley rat at 0.5 mg/kg, iv measured after 24 hrs by LC-MS/MS analysis. The format is ADME, organism-based. Particulars: in vivo.
Data set [38] can be described thus: Stability in human liver microsomes assessed as intrinsic clearance preincubated for 60 mins followed by NADPH addition and measured upto 60 mins by LC-MS/MS analysis. Particulars: time < 120 min, read-out: CLH. The format is ADME, Microsome.
The nature of data set [39]: Stability in rat liver microsomes assessed as intrinsic clearance preincubated for 60 mins followed by NADPH addition and measured upto 60 mins by LC-MS/MS analysis. It is filed as ADME, Microsome. Particulars: time < 120 min, read-out: CLH.

Active and inactive are the calls of the source. The calls are words filed in the database; no cut-off is given here.

Metabotropic glutamate receptor 5 (Homo sapiens), sequence (P41594 21-1212 limits assumed): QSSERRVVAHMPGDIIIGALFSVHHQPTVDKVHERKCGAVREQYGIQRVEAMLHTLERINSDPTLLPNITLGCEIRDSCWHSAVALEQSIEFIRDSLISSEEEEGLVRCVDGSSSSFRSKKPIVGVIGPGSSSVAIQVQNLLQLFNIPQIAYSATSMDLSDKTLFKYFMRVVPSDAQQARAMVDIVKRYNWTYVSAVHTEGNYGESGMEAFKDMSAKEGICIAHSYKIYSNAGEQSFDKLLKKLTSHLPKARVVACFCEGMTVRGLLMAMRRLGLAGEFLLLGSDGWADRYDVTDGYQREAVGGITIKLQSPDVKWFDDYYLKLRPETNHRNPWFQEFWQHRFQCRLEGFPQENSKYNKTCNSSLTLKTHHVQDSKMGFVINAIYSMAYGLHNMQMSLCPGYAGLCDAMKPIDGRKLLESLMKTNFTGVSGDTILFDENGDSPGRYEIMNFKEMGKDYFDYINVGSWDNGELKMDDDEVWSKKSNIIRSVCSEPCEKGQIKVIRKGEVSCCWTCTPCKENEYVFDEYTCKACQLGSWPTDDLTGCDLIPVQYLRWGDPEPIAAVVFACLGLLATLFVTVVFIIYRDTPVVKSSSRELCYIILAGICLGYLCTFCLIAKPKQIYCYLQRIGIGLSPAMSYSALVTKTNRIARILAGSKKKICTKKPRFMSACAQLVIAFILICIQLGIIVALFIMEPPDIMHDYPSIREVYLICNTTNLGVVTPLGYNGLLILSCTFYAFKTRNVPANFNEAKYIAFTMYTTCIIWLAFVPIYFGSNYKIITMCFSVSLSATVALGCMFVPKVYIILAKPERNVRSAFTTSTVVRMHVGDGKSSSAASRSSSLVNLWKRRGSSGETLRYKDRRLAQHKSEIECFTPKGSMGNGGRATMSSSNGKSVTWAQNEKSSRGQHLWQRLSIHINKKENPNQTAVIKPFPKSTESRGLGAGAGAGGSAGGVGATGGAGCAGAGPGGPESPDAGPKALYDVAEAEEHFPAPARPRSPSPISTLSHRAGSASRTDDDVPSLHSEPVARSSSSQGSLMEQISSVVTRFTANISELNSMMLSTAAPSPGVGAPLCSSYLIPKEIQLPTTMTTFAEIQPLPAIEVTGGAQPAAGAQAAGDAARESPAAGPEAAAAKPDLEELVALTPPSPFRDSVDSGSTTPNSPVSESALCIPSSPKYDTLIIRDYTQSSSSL
Metabotropic glutamate receptor 2 (Homo sapiens), sequence (Q14416 19-872 limits assumed): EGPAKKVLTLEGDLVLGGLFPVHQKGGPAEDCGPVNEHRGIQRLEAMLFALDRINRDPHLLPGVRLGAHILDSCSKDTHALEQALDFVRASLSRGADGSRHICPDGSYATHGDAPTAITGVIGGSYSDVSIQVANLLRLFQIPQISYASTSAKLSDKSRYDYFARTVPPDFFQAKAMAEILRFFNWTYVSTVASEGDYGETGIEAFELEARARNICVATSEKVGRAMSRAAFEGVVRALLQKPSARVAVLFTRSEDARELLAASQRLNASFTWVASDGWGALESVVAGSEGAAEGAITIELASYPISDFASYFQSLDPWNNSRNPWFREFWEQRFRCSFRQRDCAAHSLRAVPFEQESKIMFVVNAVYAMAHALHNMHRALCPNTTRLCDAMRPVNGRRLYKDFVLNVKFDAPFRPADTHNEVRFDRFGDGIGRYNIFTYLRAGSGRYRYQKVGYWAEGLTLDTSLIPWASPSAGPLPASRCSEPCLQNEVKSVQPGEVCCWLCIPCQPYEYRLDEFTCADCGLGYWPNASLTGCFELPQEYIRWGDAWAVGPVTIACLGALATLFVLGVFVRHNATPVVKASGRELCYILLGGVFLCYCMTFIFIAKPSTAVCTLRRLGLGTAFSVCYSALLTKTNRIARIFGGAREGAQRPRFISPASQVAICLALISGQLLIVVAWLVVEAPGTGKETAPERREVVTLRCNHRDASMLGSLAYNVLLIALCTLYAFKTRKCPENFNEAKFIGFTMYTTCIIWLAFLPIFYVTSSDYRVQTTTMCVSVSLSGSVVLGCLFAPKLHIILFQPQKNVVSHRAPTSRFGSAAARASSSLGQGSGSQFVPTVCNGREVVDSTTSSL
Metabotropic glutamate receptor 4 (Homo sapiens), sequence (Q14833 whole entry): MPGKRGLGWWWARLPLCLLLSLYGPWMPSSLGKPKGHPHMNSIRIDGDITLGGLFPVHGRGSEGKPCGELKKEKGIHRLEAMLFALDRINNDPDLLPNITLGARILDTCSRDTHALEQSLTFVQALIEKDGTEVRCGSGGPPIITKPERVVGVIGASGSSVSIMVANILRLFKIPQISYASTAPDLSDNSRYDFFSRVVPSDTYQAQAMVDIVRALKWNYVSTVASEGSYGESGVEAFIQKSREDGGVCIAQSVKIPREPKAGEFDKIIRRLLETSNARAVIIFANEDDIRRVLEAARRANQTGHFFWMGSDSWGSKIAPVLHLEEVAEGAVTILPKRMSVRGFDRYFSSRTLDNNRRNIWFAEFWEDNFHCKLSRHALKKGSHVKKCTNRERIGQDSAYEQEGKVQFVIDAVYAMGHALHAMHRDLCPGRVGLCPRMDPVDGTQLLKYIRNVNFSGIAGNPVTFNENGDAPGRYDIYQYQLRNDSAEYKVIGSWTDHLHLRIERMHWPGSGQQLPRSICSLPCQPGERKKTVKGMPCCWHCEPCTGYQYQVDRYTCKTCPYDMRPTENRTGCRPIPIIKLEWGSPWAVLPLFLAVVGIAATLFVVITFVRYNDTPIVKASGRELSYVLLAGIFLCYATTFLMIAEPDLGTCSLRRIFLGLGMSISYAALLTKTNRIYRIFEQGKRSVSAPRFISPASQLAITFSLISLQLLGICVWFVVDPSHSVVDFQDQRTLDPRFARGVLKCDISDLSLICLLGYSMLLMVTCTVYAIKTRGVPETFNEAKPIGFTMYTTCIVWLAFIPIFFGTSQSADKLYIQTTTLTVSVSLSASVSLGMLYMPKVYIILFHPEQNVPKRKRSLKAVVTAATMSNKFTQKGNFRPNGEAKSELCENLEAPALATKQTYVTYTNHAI
Sodium-dependent noradrenaline transporter (Homo sapiens), sequence (P23975 whole entry): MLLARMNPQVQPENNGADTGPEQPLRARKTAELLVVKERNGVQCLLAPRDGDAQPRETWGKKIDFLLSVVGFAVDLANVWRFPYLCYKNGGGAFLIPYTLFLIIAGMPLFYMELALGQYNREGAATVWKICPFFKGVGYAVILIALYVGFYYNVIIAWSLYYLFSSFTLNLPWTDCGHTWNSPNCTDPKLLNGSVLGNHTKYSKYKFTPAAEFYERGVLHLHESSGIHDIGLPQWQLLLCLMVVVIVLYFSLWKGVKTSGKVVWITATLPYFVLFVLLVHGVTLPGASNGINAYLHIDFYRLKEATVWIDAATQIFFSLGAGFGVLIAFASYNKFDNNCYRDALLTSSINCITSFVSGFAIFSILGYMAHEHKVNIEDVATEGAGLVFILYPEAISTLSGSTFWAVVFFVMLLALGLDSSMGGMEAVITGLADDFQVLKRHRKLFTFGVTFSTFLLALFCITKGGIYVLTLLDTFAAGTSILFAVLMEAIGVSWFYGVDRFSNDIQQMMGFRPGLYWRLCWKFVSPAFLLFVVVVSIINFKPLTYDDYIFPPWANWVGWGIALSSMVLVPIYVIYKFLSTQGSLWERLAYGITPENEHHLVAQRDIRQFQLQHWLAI

Consider `N[C@@H](CCP(=O)(O)O)C(=O)O`, for which the fold change (FC) in data set [1] stood at 13.

In the case of `CNC[C@@H](OCC(=O)N1CCCc2ccccc21)c1ccccc1`, in data set [2], the EC50 (usually the concentration needed to bring the measured effect to its halfway point) amounted to 110 nM.

As for `O=C(Nc1ccc(Oc2ccc(Cl)cn2)c(Cl)c1)c1ccccn1`, the fold change (FC) in data set [3] stood at 2. Further, the Activity in data set [4] amounted to 43%.

Take `C[C@H](C(=O)NC1Cc2ccccc2C1)c1ccccc1`: the EC50 in data set [5] came out at 113 nM. Further, the Emax (commonly the greatest response seen or fitted, relative to the assay's reference) in [6] amounted to 95%.

Regarding `C[C@@H](C(=O)NC1Cc2ccccc2C1)c1ccccc1`, the EC50 in data set [5] stood at 1340 nM. In data set [6], the Emax came out at 69%.

Take `c1ccc(C(NCCNC(c2ccccc2)c2ccccc2)c2ccccc2)cc1`: the outcome in data set [7], in [8], in data set [9] and in data set [12] was Active. Further, in data set [10], the Activity was 74%. Further, the fold change (FC) in [11] came to 2. Also, the EC50 in data set [2] was 64 nM.

In the case of `C[C@H](C(=O)NC1Cc2ccccc2C1)c1ccc(F)cc1`, the EC50 in [5] came to 55 nM. Moreover, the Emax in data set [6] amounted to 96%.

In the case of `N[C@@H](CCC(=O)O)C(=O)O`, the outcome in data set [9] was Active.

As for `C[C@H](C(=O)N[C@H]1COc2ccccc2[C@@H]1S(C)(=O)=O)c1ccc(F)cc1`, the outcome in [13], in data set [17], in data set [18], in [19], in [25] and in data set [26] was inactive. Besides, the result in data set [29] and in data set [30] was inactive. Moreover, the EC50 in data set [14] turned out to be 2 nM; in [5], 7 nM. Further, in data set [15], the CLint scaled is 145 mL/min/kg. The Activity in the data set with Rattus norvegicus [16] was 40.9; in the data set on Rattus norvegicus [27], “Dose-Dependent Effect”; in the data set with Rattus norvegicus [36], 25%. Moreover, in data set [9], the result was Active. For the same molecule, the Emax in data set [6] is 97%. The Tmax (in general, the time from dosing to the highest level) in [20] stood at 0.67 h. Also, the Fu in data set [21] stood at 0.227; in [24], 0.283. The Papp (as a rule, the rate of passage across a membrane or cell layer, normalised by area and donor concentration) in data set [22] was determined as 16.2 ×10⁻⁶ cm/s. Besides, the “K(p,uu,brain)” value in data set [23] is on record as 0.45. The BPR in data set [28] amounted to 0.56. Besides, the fold change (FC) in data set [11] turned out to be 2. Also, the AUC – broadly, concentration integrated over time – in data set [31] was found to be 1404 ng·h/mL. Besides, the Cmax – broadly, the maximum level reached in the sampled fluid or tissue – in data set [32] was 1240 nM. In data set [33], this molecule registered a t1/2 of 2.25 h. This molecule registered a F in data set [34] of 24%. For the same molecule, in [35], the Ratio worked out at 0.5. For the same molecule, the Vdss – broadly, a proportionality between amount in the body and measured concentration, not a real space – in data set [37] worked out at 1.49 L/kg.

Consider `C[C@H](C(=O)N[C@@H]1CCc2ccccc2[C@H]1S(C)(=O)=O)c1ccc(F)cc1`, for which, in data set [6], the Emax came to 95%. In addition, the microsomal CLint in [38] was found to be 2 µL/min/mg; in data set [39], 55 µL/min/mg.

As to `O=C(Cc1ccc(Cl)cc1)NC1Cc2ccccc2C1`, in [5], the EC50 stood at 156 nM. For the same molecule, in data set [6], the Emax worked out at 71%.
